# Read-outs that look alike come from different tables or passages of the source.
# Legend:
# VEGF = assay: Immunohistochemical staining of VEGF in SEC tumor sections; assay type: in vivo, mice; conditions: IHC of SEC tumor
# Source text: VEGF has been considered a biomarker for VEGFR-2 bioactivity, as it binds to and activates this kinase receptor, playing a crucial role in angiogenesis. High VEGF levels are often associated with increased VEGFR-2 expression and activity, making VEGF a marker for VEGFR-2's function and tumor growth. […] The staining intensity is strong (+ 3), with dark brown cytoplasmic staining in most tumor cells. The immunoreactive score (IRS), calculated by multiplying the staining intensity score and the percentage of positive cells, is 9–12, indicating a high level of VEGF expression. This intense VEGF expression correlates with the presence of numerous irregular and dilated blood vessels in the tumor microenvironment.
# The paraffin-infiltrated tissue was sliced into thin sections (4-6 μm) using a microtome and floated in a water bath. The sections were then mounted onto charged slides and left to dry overnight. The use of charged slides ensures the sections adhere properly to the slide. To carry out antibody staining, the paraffin wax was removed from the sample, and the tissue was rehydrated. The paraffin was eliminated by placing the tissue sections in three containers of xylene for 5 minutes each. Rehydration began by immersing the sections in two containers of 100% ethanol for 10 minutes each, followed by two containers of 95% ethanol for 10 minutes each. Finally, to complete the rehydration, the sections were washed twice in deionized water for 5 minutes each.
# For antigen retrieval, the slides are heated in 10 mM Tris/1 mM EDTA, pH 9.0, kept at a sub-boiling temperature for 18 minutes, and then allowed to cool at room temperature for 30 minutes. For chromogenic staining detection, the sections are rinsed in deionized water three times for 5 minutes each, and then the endogenous peroxidase activity in the tissue sections is quenched to prevent high background staining by incubating the sections in 3% hydrogen peroxide for 10 minutes. Afterward, the sections are washed twice in deionized water for 5 minutes each, followed by a single wash in wash buffer for 5 minutes. A hydrophobic pen is used to carefully draw a large circle around the sample, ensuring it doesn’t touch the sample, creating a hydrophobic boundary to achieve optimal antibody staining quality. To prevent non-specific antibodies from binding to the tissue, each section is blocked with 100–400 µl of blocking solution for 1 hour at room temperature in a humidified chamber. The blocking solution was discarded, and 100–400 µl of diluted primary antibody was applied. […]
# The slides were incubated overnight at 4°C in a humidified chamber. […] Then, 100–400 µl of Signal Stain DAB was applied to each section and monitored closely for 1–10 minutes until an acceptable staining intensity was achieved. […]
# MCF-7 cells = assay: Cytotoxicity against MCF-7 cells, MTT assay (single dose and five doses)
# MCF-10A cells = assay: Cytotoxicity against MCF-10A cells, MTT assay (five doses); assay type: cell-based; conditions: Homo sapiens, MCF-10A normal cells, five dose concentrations, n = 3, read-out: MCF-10A IC50 ± SD
smiles,measurement,setting,value
"CCC(C)n1ncn(-c2ccc(N3CCN(c4ccc(OCC5COC(Cn6cncn6)(c6ccc(Cl)cc6Cl)O5)cc4)CC3)cc2)c1=O (stereo not drawn) [Itraconazole, itraconazole]",immunoreactive score (IRS),"VEGF; scale 0-12, SEC control 9–12",4–8
same,percentage of VEGF-positive tumor cells,VEGF; SEC control 80–90%,40–60%
same,viability at 100 µg/mL,"MCF-7 cells; Homo sapiens, MCF7, read-out: Average viability%",69.5%
same,IC50,"MCF-7 cells; Homo sapiens, MCF7, read-out: MCF-7 IC50 ± SD, MCF-7, five dose concentrations, MTT, n = 3",25.7 ± 0.9 µM
same,viability at 100 µg/mL,"MCF-7 cells; Homo sapiens, MCF7, read-out: Viability (%) 1",70.8%
same,viability at 100 µg/mL,"MCF-7 cells; Homo sapiens, MCF7, read-out: Viability (%) 2",70.1%
same,viability at 100 µg/mL,"MCF-7 cells; Homo sapiens, MCF7, read-out: Viability (%) 3",67.7%
same,Average OD,"MCF-7 cells; MCF-7, single dose 100 μg/mL, MTT optical density, average of triplicates",2.24
same,OD1,"MCF-7 cells; MCF-7, single dose 100 μg/mL, MTT optical density, replicate 1",2.28
same,OD2,"MCF-7 cells; MCF-7, single dose 100 μg/mL, MTT optical density, replicate 2",2.26
same,OD3,"MCF-7 cells; MCF-7, single dose 100 μg/mL, MTT optical density, replicate 3",2.18
same,IC50,MCF-10A cells,49.6 ± 2.5 µM

# Source: paper PMC12699035, “Exploring market-approved azoles as potential breast cancer therapeutics targeting the VEGFR-2 biotarget” (Scientific Reports, 2025)
